Results taken from patent US20120142005A1, “METHOD FOR SCREENING OF REGENERATIVE MEDICINE” (TAKEDA PHARMACEUTICAL COMPANY LIMITED, priority 2009, published 2012).

Assays:
Format in all cases: cell-based
[1] = system: human mesenchymal stem cells; assay: Adipose differentiation of human mesenchymal stem cells: amount of adiponectin in culture solution, ELISA; settings: adhesion culture 8 days
Description: In addition, when each of the 3 compounds was added, the amount of adiponectin contained in a corresponding culture solution was measured. Simultaneously with inducing adipose differentiation, 10 μM Y-27632, 10 μM HA-100, or 3 μM capsazepine was added, followed by adhesion culture for 8 days. After culture, the amount of adiponectin contained in the culture solution was measured using a human adiponectin ELISA kit (R&D systems).

[2] = system: human mesenchymal stem cells; assay: Adipose differentiation of human mesenchymal stem cells: expression of adiponectin and PPARγ by quantitative RT-PCR; settings: for level of expression of adiponectin: 3 μM compound added with adipose differentiation induction, 5 days, relative to DMSO control; for level of expression of PPARγ: adipose differentiation, 5 days (FIG. 12a)
Description: There was possibility that the selected compounds control the differentiation of adult stem cells as well as ES cells. Accordingly, the influence of these selected compounds was examined on adipose differentiation of human mesenchymal stem cells. The human mesenchymal stem cells were purchased from Lonza and subjected to adhesion culturing using a medium made by addition of 10% calf fetal serum, 2 mM GlutaMAX-1, and 1× penicillin-streptomycin (Sigma) (hereinafter referred to as “growth medium”) to low-glucose DMEM (Invitrogen). Upon induction of an adipose differentiation, cells were seeded on a 96-well plate to 3,000 cells per well and then cultured overnight using the growth medium. Thereafter, the adipose differentiation was induced by exchanging the growth medium with an adipose differentiation induction medium (i.e., a medium made by addition of 10% calf fetal serum, 2 mM GlutaMAX-1, 0.5 mM 3-isobutyl-1-methylxanthine (IBMX, Wako Pure Chemical Industries Ltd.), 10 μg/ml insulin (Wako Pure Chemical Industries Ltd.), 1 μM dexamethasone (Wako Pure Chemical Industries Ltd.), 200 μM indomethacin (Wako Pure Chemical Industries Ltd.), and 1× penicillin-streptomycin (Sigma) to high-glucose DMEM (Invitrogen)). Simultaneously with inducing adipose differentiation, each selected compound was added to a final concentration of 3 μM, followed by culture for 5 days. After 5 days, the level of expression of adiponectin as a fat cell marker was measured using the same technique as that described in Example 1.
In addition, the level of expression of PPARγ as a master regulator of adipose differentiation for which the 3 compounds (Y-27632, HA-100 and capsazepine) were each added was also measured using the same technique.

[3] = system: human mesenchymal stem cells; assay: Adipose differentiation of human mesenchymal stem cells: fat droplet formation, oil red O staining; settings: adhesion culturing 5 days
Description: The influence of the 3 compounds on fat droplet formation was then examined. Simultaneously with inducing adipose differentiation, 10 μM Y-27632, 10 μM HA-100, or 3 μM capsazepine was added to an adipose differentiation induction medium, followed by adhesion culturing for 5 days. Thereafter, the cells were fixed with 4% paraformaldehyde (Wako Pure Chemical Industries Ltd.) for 30 minutes and then washed 3 times with PBS. In addition, the cells were stained with 0.36% oil red 0 (Chemicon) at room temperature for 50 minutes and then washed 3 times with distilled water, followed by observing and photographing the cell.

[4] = system: human mesenchymal stem cells; assay: Bone differentiation of human mesenchymal stem cells: expression of Alp1, Runx2, Col1a1 and PTHR by quantitative RT-PCR; settings: 8 days; for level of expression of Alp1: 3 μM compound added with bone differentiation induction, relative to DMSO control
Description: Then, the influence of the selected compounds was examined on bone differentiation of human mesenchymal stem cells. The human mesenchymal stem cells were maintained and cultured using the same technique as in Example 6. Cells were seeded on a 96-well plate to 1,000 cells per well and then cultured overnight using the growth medium. Thereafter, the bone differentiation was induced by exchanging the medium with a medium made by addition of 10% calf fetal serum, 2 mM GlutaMAX-1, 10 mMβ-glycerophosphate (Wako Pure Chemical Industries Ltd.), 0.05 mM ascorbic acid-2-phosphate (Wako Pure Chemical Industries Ltd.), 0.1 μM dexamethasone (Wako Pure Chemical Industries Ltd.), and 1× penicillin-streptomycin (Sigma) to low-glucose DMEM. Simultaneously with inducing bone differentiation, each selected compound was added to a final concentration of 3 μM, followed by adhesion culture for 8 days. After the end of culture, the level of expression of Alkaline phosphatase (Alp1) as an initial osteoblast marker was measured using the same technique as in Example 1.
The expression of other bone differentiation markers for which BIO or BrdU was added was also examined. Adhesion culture was performed for 8 days after adding BIO or BrdU, followed by measuring the levels of expression of runt-related transcription factor 2 (Runx2), collagen type 1 alpha 1 (Col1a1), and parathyroid hormone receptor (PTHR) using the same technique as in Example 1.

[5] = system: human mesenchymal stem cells; assay: Bone differentiation of human mesenchymal stem cells: amount of calcium accumulated in cells; settings: 15 days
Description: In addition, the amount of calcium accumulated in cells was examined. Simultaneously with inducing bone differentiation, 3 μM BIO or 10 μM BrdU was added, followed by adhesion culture for 15 days. After culture, cells were washed with PBS, followed by dissolving the cells in a solution consisting of 10 mM Tris-HCl and 0.2% TritonX-100. Using a portion of the solution, the protein concentration was measured employing BCA protein assay kit (Pierce). Hydrochloric acid was added to a final concentration of 0.5 N to the remaining solution, which was then shaken overnight. The amount of calcium dissolving in the solution containing 0.5 N hydrochloric acid was measured using Calcium E-test Kit Wako (Wako Pure Chemical Industries Ltd.). The amount of calcium used the value corrected for the amount of protein for analysis.

[6] = system: human mesenchymal stem cells; assay: Bone differentiation of human mesenchymal stem cells: staining with alkaline phosphatase; settings: 8 days
Description: To further verify the influence of compounds on bone differentiation, staining with alkaline phosphatase was performed. Simultaneously with inducing bone differentiation, 3 μM BIO or 10 μM BrdU was added, followed by adhesion culture for 8 days. After culture, cells were fixed with 4% paraformaldehyde (Wako Pure Chemical Industries Ltd.) for 30 minutes and then washed 3 times with PBS. Alkaline phosphatase kit III (Vector Laboratories) was used according to the appended protocol to stain with alkaline phosphatase.

**Q.** Which “amount of adiponectin contained in the culture solution” value ([1]; 3 μM compound) does the source give for `Oc1cc2c(cc1O)CN(C(=S)NCCc1ccc(Cl)cc1)CCC2` [capsazepine] here?
**A.** no action of increasing the amount of adiponectin

**Q.** And the “level of expression of adiponectin” value [2]?
**A.** increase the level of expression of adiponectin

**Q.** What about the “amount of fat droplets (oil red O) compared to DMSO control” value ([3]; 3 μM compound) of the same compound?
**A.** no noticeable activity of increasing fat droplet formation

**Q.** `O=c1[nH]c(=O)n([C@H]2C[C@H](O)[C@@H](CO)O2)cc1Br` [BrdU, 5-Bromo-2′-deoxyuridine] was tested. Which “level of expression of Alp1” value [4] did it give?
**A.** noticeably increasing the level of expression of Alp1

**Q.** What about the “level of expression of Col1a1” value ([4]; 10 μM compound) of the same compound?
**A.** noticeably increased

**Q.** And the “level of expression of PTHR” value ([4]; 10 μM compound)?
**A.** noticeably increased

**Q.** What about the “level of expression of Runx2” value ([4]; 10 μM compound) of the same compound?
**A.** noticeably increased

**Q.** What about the “amount of calcium in cells, corrected for amount of protein” value ([5]; 10 μM compound) of the same compound?
**A.** increased the amount of calcium in cells

**Q.** What about the “stainability with alkaline phosphatase (alkaline phosphatase activity)” value ([6]; 10 μM compound) of the same compound?
**A.** increased the stainability with alkaline phosphatase

**Q.** How did the “amount of adiponectin contained in the culture solution” value ([1]; 10 μM compound) turn out when `O=S(=O)(c1cccc2cnccc12)N1CCNCC1` [HA-100] was run?
**A.** noticeably increased the amount of adiponectin

**Q.** What about the “level of expression of adiponectin” value [2] of the same compound?
**A.** increase the level of expression of adiponectin

**Q.** What about the “level of expression of PPARγ” value [2] of the same compound?
**A.** increasing the level of expression of PPARγ in a concentration-dependent manner

**Q.** And the “amount of fat droplets (oil red O) compared to DMSO control” value ([3]; 10 μM compound)?
**A.** the amount of fat droplets increased

**Q.** What does the source list for `C[C@@H](N)[C@H]1CC[C@H](C(=O)Nc2ccncc2)CC1` [Y-27632]?
**A.** amount of adiponectin contained in the culture solution ([1]; 10 μM compound): noticeably increased the amount of adiponectin; level of expression of adiponectin [2]: increase the level of expression of adiponectin; level of expression of PPARγ [2]: increasing the level of expression of PPARγ in a concentration-dependent manner; amount of fat droplets (oil red O) compared to DMSO control ([3]; 10 μM compound): the amount of fat droplets increased

**Q.** Which results are given for `O=C1Nc2cc(Br)ccc2/C1=C1/Nc2ccccc2/C1=N\O` [BIO, 6-bromoindirubin-3′ oxime]?
**A.** level of expression of Alp1 [4]: noticeably increasing the level of expression of Alp1; level of expression of Col1a1 ([4]; 3 μM compound): noticeably increased; level of expression of PTHR ([4]; 3 μM compound): noticeably increased; level of expression of Runx2 ([4]; 3 μM compound): noticeably increased; amount of calcium in cells, corrected for amount of protein ([5]; 3 μM compound): increased the amount of calcium in cells; stainability with alkaline phosphatase (alkaline phosphatase activity) ([6]; 3 μM compound): increased the stainability with alkaline phosphatase
